Tests used:
[1] = acute toxicity LD50 on Wistar rats; details: rat, in vivo, iv
[2] = tested on: diabetic aorta; experiment: beta-blocking effect on diabetic (Streptosotocin treated) rat aorta spiral and/or ring preparate, noradrenalin contractions; details: aorta spiral of diabetic animals treated with Streptosotocin
Method: (§1) The beta-blocking effect of the compounds according to the present invention was tested on rat aorta spiral and/or ring preparate <J. Pharmacol. Exp. Therap. 158, 531 (1967)>. The experimental diabetes was induced with Streptosotocin <2-(3-nitroso-3-methylureido)-2-deoxy-D-glucose>. The reaction was evaluated as positive when the alpha stimulating effect of the noradrenalin on the control preparate, i.e. that having not been treated with Streptosotocin, was not influenced, but protected on the diabetic aorta. In the tests carried out with the compounds according to the present invention a general selective effect occurred, manifesting in case of diabetic tests in a strong, in case of normal tests in the absence of or in the presence of only a slight beta-blocking effect.
Experiments were carried out to study whether on the aorta spiral preparates of diabetic animals treated with Streptosotocin the Inderal protects the contractions induced by noradrenalin. As control, animals previously not treated with Streptosotocin were used. The results obtained essentially conformed to those known from the literature <Amer. […] (Endocrinology. Vol. 93, No. 3, September 1973). […]

[3] = tested on: control preparate (rat aorta); experiment: beta-blocking effect on control (not Streptosotocin treated) rat aorta spiral and/or ring preparate, noradrenalin contractions; details: aorta spiral of animals not treated with Streptosotocin (normal tests)
Method: as §1
Experiments were carried out to study whether on the aorta spiral preparates of diabetic animals treated with Streptosotocin the Inderal protects the contractions induced by noradrenalin. As control, animals previously not treated with Streptosotocin were used. The results obtained essentially conformed to those known from the literature <Amer. […] (Endocrinology. Vol. 93, No. 3, September 1973).

Compound | LD50 [1] [mg/kg] | protection against the alpha stimulating effect (contractions) of noradrenalin [2] | protection against the alpha stimulating effect (contractions) of noradrenalin [3]
OC(CON=C(Cl)c1cccnc1)CN1CCCCC1 (stereo not drawn) [Example 5, O-(3-piperidino-2-hydroxy-propyl)-3-piridyl-hydroximic acid chloride] | 110 |  | 
CC(C)NCC(O)COc1cccc2ccccc12 (stereo not drawn) [Inderal, 1-isopropylamino-3-(naphtyloxy)-propan-2-ol] |  | the alpha stimulating effect of noradrenalin was protected by the Inderal in diabetic tests | not in the normal tests

From patent publication US5328906A, “0-(3-amino-2-hydroxypropyl)-hydroximic acid halides and process for preparing the same” (Biorex Kutato-Fejleszto KFT, priority 1993, dated 1994)
